In patent US20240197761A1, “FUCOSYLATION AND IMMUNE MODULATION IN CANCER” (H. LEE MOFFITT CANCER CENTER AND RESEARCH INSTITUTE, INC., priority 2021, published 2024):

Experiments:
[1] = system: mouse splenic MDSC; experiment: Splenic MDSC proliferation with L-fuc or 2FF; format: cell-based; conditions: FIG. 3E
[2] = system: PD-L1 on WM793, SW1 and SM1 cells; experiment: Cell surface PD-L1 (flow cytometry); format: cell-based; conditions: human or mouse melanoma cells, 250 μM
Source text: FIGS. 22A-221 show Schematic of L-PLA staining and verification of fucosylated HLA-DRB1 staining, which is weakly associated with tumor peripheral CD4+T cells; and the effects of L-fucose on tumor PD-L1 expression (a) Schematic of lectin-mediated proximity ligation analysis (L-PLA) using fucosylated HLA-DRB1 (fuco-HLA-DRB1) as an example. We stained for (i) HLA-DRB1 using […]-HLA-DRB1 followed by (+) oligo-conjugated PLA secondary and (ii) fucosylated glycan using biotinylated (“B”) AAL lectin followed by D-biotin followed by (−) oligo-conjugated PLA secondary. Ligated PLA oligos were subjected to rolling circle amplification PCR (RCA PCR), giving rise to fluorescent punctae. […] Single melanoma marker, AAL-FITC, and HLA-DRB1 channels are shown in white for clearer visualization. […] (d) FFPE melanoma tissues were subjected to L-PLA HLA-DRB1 staining ±500 mM L-fucose wash and subsequent staining with melanoma marker (MART1+SI10 cocktail), and DAPI. Single melanoma marker and fuco-HLA-DRB1 channels are shown in white for clear visualization. […]
HLA-DRB1, and PD-L1: Indicated cells were treated for 72 h with DMSO, 250 μM fucosyltransferase inhibitor (FUTi) (Millipore Sigma (St. Louis, MO)), or 250 μM of L-fucose (Biosynth (Oak Terrace, IL)). […] Samples were analyzed using FlowJo analysis software (BD Biosciences (San Jose, CA)). […]

SMILES: C[C@H](O)[C@@H](O)[C@@H](O)[C@H](O)C=O [L-fucose]
- MDSC proliferation / MDSC populations [1]: increased
- MDSC proliferation / MDSC populations ([1]; listed as L-fuc): increases
- cell surface levels of PD-L1 [2]: does not alter
